In patent US20110105422A1, “USE OF G-RICH OLIGONUCLEOTIDES FOR TREATING NEOPLASTIC DISEASES” (priority 2008, published 2011):
pIC50: −log10 of the molar value. Entries after “also recorded” stand apart in the source; their conditions may differ. Read-outs that look alike come from different tables or passages of the source. Blank lines part the entries; values can stand above or below the compound they belong to.

Assays:
[1] = system: Raji cells; experiment: Sulphorhodamine B (SRB) assay, Raji; assay type: cell-based, human
Procedure: (§1) Cells of the types described above were seeded in wells of a 96-well plate at a number optimised for each cell line.
(§2) A fixed concentration of AS1411 (either 1 μM or 2.5 μM) was added with varying concentrations of doxorubicin (ranging between 0.12 nM and 30667.0 nM) and cells were incubated for 6 days. A control was run with varying amounts of AS1411 without Doxorubicin. A second control series was run with the varying amounts of Doxorubicin but with no AS1411 present.
(§3) Cells were then washed, fixed to the 96-well plate with 16% TCA and exposed to the dye Sulphorhodamine B (SRB; available from Sigma-Aldrich, Dorset, UK; catalogue number S-1402). The optical density of the remaining cell mass after exposure to AS1411 was measured in a microplate spectrophotometer and IC50 determined.
(§4) The experiments were run in duplicate and the mean optical density calculated.
(§5) Combination index (CI) is determined using Calcusyn software (Biosoft, Cambridge UK) which employs the method of Chou, T.-C. and Talalay, P (See, Chou et al, Adv. Enz. Regul. 22: 27-55, 1984; and Chou, T.-C., Pharmacological Reviews 58:621-681, 2006.).

[2] = system: K562 cells; experiment: Sulphorhodamine B (SRB) assay, K562; assay type: cell-based; details: K562, 6 days
Procedure: as §1, §2, §3, §4, §5

[3] = system: Daudi cells; experiment: Sulphorhodamine B (SRB) assay, Daudi; assay type: cell-based, human
Procedure: as §1, §2, §3, §4, §5

[4] = system: KG-1 cells; experiment: Sulphorhodamine B (SRB) assay, KG-1; assay type: cell-based; details: KG-1, 6 days
Procedure: as §1, §2, §3, §4, §5

[5] = system: Jurkat cells; experiment: Sulphorhodamine B (SRB) assay, Jurkat; assay type: cell-based; details: 6 days
Procedure: as §1, §2, §3, §4, §5

[6] = system: HL-60 cells; experiment: Sulphorhodamine B (SRB) assay, HL-60; assay type: cell-based; details: HL-60, 6 days
Procedure: as §1, §2, §3, §4, §5

[7] = system: MV411 cells; experiment: Sulphorhodamine B (SRB) assay, MV411; assay type: cell-based; details: MV411, 6 days
Procedure: as §1, §2, §3, §4, §5

[8] = system: Namalwa cells; experiment: Sulphorhodamine B (SRB) assay, Namalwa; assay type: cell-based, human
Procedure: as §1, §2, §3, §4, §5

[9] = system: SUP-B15 (ALL) cells; experiment: SRB assay, paediatric cancer cell line SUP-B15; assay type: cell-based; details: SUP-B15, acute lymphoblastic leukaemia (ALL); 6-day SRB; average of at least two experiments
Procedure: (§6) Cells were typically seeded in wells of a 96-well plate as follows for each cell line:
(§7) AS1411 (G rich oligonucleotide of sequence ID No. 1) was added at a concentration selected from 0, 0.1, 1, 5 or 20 µM and cells were incubated for 6 days
(§8) Cells were then washed, fixed to the 96-well plate and exposed to the dye Sulphorhodamine B (SRB; available from Sigma-Aldrich, Dorset, UK; catalogue number S-1402. The optical density of the remaining cell mass after exposure to AS1411 was measured in a microplate spectrophotometer and IC50 determined. For the time course experiments, AS1411 was washed off cells at the stated time-point, and then fresh medium applied to the cells which were left to grow for the full 6 days of the assay.
as §4

[10] = system: R-1059-D (osteosarcoma); experiment: SRB assay, paediatric cancer cell line R-1059-D; assay type: cell-based; details: 6-day SRB, average of at least two experiments
Procedure: as §6, §7, §8, §4

[11] = system: nucleolin; experiment: Western blot analysis, nucleolin; assay type: cell-based; details: cells incubated with AS1411 for 4 days; whole cell lysate
Procedure: (§9) Cells were incubated with AS1411 for 4 days, after which cell lysates were analysed by non-reducing SDS-PAGE analysis using 4-12% NuPAGE Bis-Tris Gels (Invitrogen).
(§10) 10 μg of total protein (whole cell lysate) was loaded per well as assessed by the Lowry assay (Lowry reagent available from Sigma-Aldrich, catalogue number L3540) and detected using ECL Advance western blotting kit (GE Healthcare).
(§11) Anti-nucleolin and bax antibodies were obtained from Santa Cruz and the β-actin antibody from QED.

[12] = system: A204 (rhabdomyosarcoma); experiment: SRB assay, paediatric cancer cell line A204; assay type: cell-based; details: 6-day SRB, average of at least two experiments
Procedure: as §6, §7, §8, §4

[13] = system: MV4-11 (AML) cells; experiment: SRB assay, paediatric cancer cell line MV4-11; assay type: cell-based; details: MV4-11, acute myelogenous leukaemia (AML); 6-day SRB; average of at least two experiments
Procedure: as §6, §7, §8, §4

[14] = system: SK-N-AS (neuroblastoma); experiment: SRB assay, paediatric cancer cell line SK-N-AS; assay type: cell-based; details: 6-day SRB, average of at least two experiments
Procedure: as §6, §7, §8, §4

[15] = system: Bax protein; experiment: Western blot analysis, Bax; assay type: cell-based; details: cells incubated with AS1411 for 4 days; whole cell lysate; both cell lines; normalised to β-actin
Procedure: as §9, §10, §11

[16] = Homo sapiens, 144 h, 6 days, SRB, IC50 as doxorubicin concentration, alone or with fixed AS1411, read-out: Mean IC50
[17] = Homo sapiens, doxorubicin alone, read-out: Doxorubicin IC50, Alone
[18] = Homo sapiens, in combination with 2.5 μM AS1411, read-out: Doxorubicin IC50, In combination with 2.5 μM AS1411
[19] = doxorubicin IC50 alone vs in combination with 2.5 μM AS1411
[20] = Homo sapiens, 144 h, IC50 as doxorubicin concentration, alone or with fixed AS1411
[21] = 6 days, SRB, AS1411 without doxorubicin, read-out: Mean IC50

pIC50 [1, 16]: 6.13
pIC50 [1, 17]: 6.13
pIC50 [1, 18]: 6.49
pIC50 [2, 20]: 5.90
pIC50 [3, 16]: 6.66
pIC50 [3, 17]: 6.66
pIC50 [3, 18]: 7.24
pIC50 ([5]; Homo sapiens, 144 h, n=1, IC50 as doxorubicin concentration, alone or with fixed AS1411): 6.37
pIC50 [6, 20]: 6.19
pIC50 ([7]; Homo sapiens, MV4-11, 144 h, IC50 as doxorubicin concentration, alone or with fixed AS1411): 7.12
Compound: COc1cccc2c1C(=O)c1c(O)c3c(c(O)c1C2=O)C[C@@](O)(C(=O)CO)C[C@@H]3O[C@@H]1CC(N)[C@@H](O)C(C)O1 (stereo partly drawn) [Doxorubicin, (8S,10S)-10-(4-amino-5-hydroxy-6-methyl-tetrahydro-2H-pyran-2-yloxy)-6,8,11-trihydroxy-8-(2-hydroxyacetyl)-1-methoxy-7,8,9,10-tetrahydrotetracene-5,12-dione]
Fold increase in potency [1, 19]: 2.3 fold
Fold increase in potency [3, 19]: 3.8 fold
pIC50 [4, 20]: 5.31
pIC50 ([8]; Homo sapiens, 144 h, Namalwa, 6 days, SRB, IC50 as doxorubicin concentration, alone or with fixed AS1411, read-out: Mean IC50): 7.16
pIC50 ([8]; Homo sapiens, NAMALWA, doxorubicin alone, read-out: Doxorubicin IC50, Alone): 7.16
pIC50 ([8]; Homo sapiens, NAMALWA, in combination with 2.5 μM AS1411, read-out: Doxorubicin IC50, In combination with 2.5 μM AS1411): 7.76
Fold increase in potency ([8]; NAMALWA, doxorubicin IC50 alone vs in combination with 2.5 μM AS1411): 4.1 fold

Compound: AS1411: G-rich oligonucleotide, SEQ ID No: 1, 5′-GGTGGTGGTGGTTGTGGTGGTGGTGG-3′
pIC50 [9]: 8.64
pIC50 [1, 21]: 5.31
pIC50 ([2]; AS1411 without doxorubicin): 5.15
pIC50 [3, 21]: 5.03
pIC50 ([4]; AS1411 without doxorubicin): 5.63
pIC50 [10]: 8.33
pIC50 ([5]; n=1, AS1411 without doxorubicin): 5.95
pIC50 ([6]; AS1411 without doxorubicin): 5.58
total cell lysate nucleolin levels (Western blot) [11]: no effect
pIC50 ([7]; AS1411 without doxorubicin): 5.63
pIC50 [12]: 8.59
pIC50 [13]: 8.68
pIC50 [14]: 8.49
pIC50 ([8]; Namalwa, 6 days, SRB, AS1411 without doxorubicin, read-out: Mean IC50): 5.49
Bax protein level (Western blot) [15]: increased levels; also recorded: Up-regulation
